Experimental data published in BindingDB's records for doi:10.1021/jm00092a019 (Bristol-Myers Squibb Pharmaceutical Research Institute, 1992).

Experiments:
[1] = Inhibition of ADP-induced platelet aggregation in rabbit platelet rich plasma (PRP)
[2] = Inhibition of platelet aggregation using adenosine diphosphate (ADP) as activating agent in human platelet rich plasma (PRP)
[3] = Inhibition of platelet aggregation using Adenosine diphosphate (ADP) as activating agent in rabbit platelet rich plasma (PRP)
[4] = Inhibition of platelet aggregation using adenosine diphosphate (ADP) as activating agent in human platelet rich plasma PRP
[5] = Inhibition of platelet aggregation using Adenosine diphosphate (ADP) as activating agent in rabbit platelet rich plasma (PRP); remark: listed apart in the source
P2Y purinoceptor 12 = P2Y purinoceptor 12 (Homo sapiens, UniProt Q9H244); experiment: Inhibition of platelet aggregation using adenosine diphosphate (ADP) as activating agent in human platelet rich plasma (PRP)
Sequence of P2Y purinoceptor 12 (Q9H244 whole entry): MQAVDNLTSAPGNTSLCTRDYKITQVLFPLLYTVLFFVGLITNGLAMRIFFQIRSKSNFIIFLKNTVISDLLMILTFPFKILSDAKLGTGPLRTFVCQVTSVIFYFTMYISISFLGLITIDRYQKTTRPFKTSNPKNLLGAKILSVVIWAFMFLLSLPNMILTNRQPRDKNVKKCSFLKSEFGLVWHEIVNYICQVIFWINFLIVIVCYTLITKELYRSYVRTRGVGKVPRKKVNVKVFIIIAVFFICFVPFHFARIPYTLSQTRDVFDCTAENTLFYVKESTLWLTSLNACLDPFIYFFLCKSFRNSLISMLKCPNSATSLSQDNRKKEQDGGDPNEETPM

EC50 [2] [nM] | EC50 [3] [nM] | EC50 [5] [nM] | SMILES | also measured
100 |  |  | CC(O)CCCOc1ccc2nc3[nH]c(=O)[nH]c3cc2c1 (stereo unspecified) | EC50 [1]: 520 nM
 | 390 |  | O=c1[nH]c2cc3cc(OCCCS(=O)(=O)c4ccccc4)ccc3nc2[nH]1 | 
> 100000 |  | 6320 | O=c1[nH]c2cc3cc(OCCCc4nnn[nH]4)ccc3nc2[nH]1 | 
 | 10900 |  | Cn1c(=O)[nH]c2nc3ccc(OCCCC(=O)N4CCCCC4)cc3cc21 | 
 | 950 |  | COC(=O)CCCCOc1ccc2nc3[nH]c(=O)[nH]c3cc2c1 | 
> 106000 | > 106000 |  | O=C(O)CCCCOc1ccc2nc3[nH]c(=O)[nH]c3cc2c1 | 
 | 90 |  | COC(=O)CCCCCOc1ccc2nc3[nH]c(=O)[nH]c3cc2c1 | 
540 |  | 140 | CN(C(=O)CCCCOc1ccc2nc3[nH]c(=O)n(C)c3cc2c1)C1CCCCCC1 | 
 | 8 |  | CN(C(=O)CCCCOc1ccc2nc3[nH]c(=O)[nH]c3cc2c1)C1CCCCC1 | 
 | 870 |  | CC(=O)OCCOc1ccc2nc3[nH]c(=O)[nH]c3cc2c1 | 
0.7 | 6 |  | COC(=O)CN(C(=O)CCCOc1ccc2nc3[nH]c(=O)[nH]c3cc2c1)C1CCCCC1 | 
 | > 100000 |  | Cn1c(=O)[nH]c2nc3ccc(OCCCCC(=O)O)cc3cc21 | 
 | 420 |  | O=C(CCCOc1ccc2nc3[nH]c(=O)[nH]c3cc2c1)NC1CCCC1 | 
600 |  | 180 | N#CCCCOc1ccc2nc3[nH]c(=O)[nH]c3cc2c1 | 
540 |  | 20 | CN(C(=O)CCCCCOc1ccc2nc3[nH]c(=O)[nH]c3cc2c1)C1CCCCC1 | 
 | 50300 |  | Cn1c(=O)[nH]c2nc3ccc(OCCCS(=O)(=O)c4ccccc4)cc3cc21 | 
 | 2470 |  | O=c1[nH]c2cc3cc(CCCO)ccc3nc2[nH]1 | 
 | 950 |  | CC(=O)OCCCCOc1ccc2nc3[nH]c(=O)[nH]c3cc2c1 | 
38 |  | 630 | CCOC(=O)CCCOc1ccc2nc3[nH]c(=O)[nH]c3cc2c1 | 
15500 | 420 |  | O=C(CCCCc1ccc2nc3[nH]c(=O)[nH]c3cc2c1)N1CCCCC1 | 
 | 1910 |  | O=C(O)COc1ccc2nc3[nH]c(=O)[nH]c3cc2c1 | 
 | 2690 |  | COC(=O)C=CC=Cc1ccc2nc3[nH]c(=O)[nH]c3cc2c1 | 
 | 2950 |  | O=c1[nH]c2cc3cc(CCCCCO)ccc3nc2[nH]1 | 
 | 330 |  | CC(=O)OCCCOc1ccc2nc3[nH]c(=O)[nH]c3cc2c1 | 
 | 9110 |  | COC(=O)CCCCOc1ccc2nc3[nH]c(=O)n(C)c3cc2c1 | 
51000 | 5400 |  | O=c1[nH]c2cc3cc(OCCCCc4nnn[nH]4)ccc3nc2[nH]1 | 
 | 440 |  | CCOC(=O)C=Cc1ccc2nc3[nH]c(=O)[nH]c3cc2c1 | 

Further lines, the compound ahead of its results:

SMILES | EC50 [2] [nM] | EC50 [3] [nM] | EC50 [5] [nM] | also measured
CCOC(=O)CN(C(=O)CCCOc1ccc2nc3[nH]c(=O)[nH]c3cc2c1)C1CCCCC1 |  | 20 |  | 
COC(=O)CCCOc1ccc2nc3[nH]c(=O)[nH]c3cc2c1 |  |  | 66 | EC50 [4]: 83 nM
CN(C(=O)CCCOc1ccc2c(c1)CN1CC(=O)NC1=N2)C1CCCCC1 | 440 |  | 100 | 
CN(C(=O)CCCCc1ccc2nc3[nH]c(=O)[nH]c3cc2c1)C1CCCCC1 | 1100 |  | 210 | 
O=C(O)CCCCCOc1ccc2nc3[nH]c(=O)[nH]c3cc2c1 |  | 3170 |  | 
N#CCCCCOc1ccc2nc3[nH]c(=O)[nH]c3cc2c1 |  | 1320 |  | 
CCOC(=O)C1CCN(C(=O)CCCOc2ccc3nc4[nH]c(=O)[nH]c4cc3c2)CC1 |  | 210 |  | 
O=C(CCCCc1ccc2nc3[nH]c(=O)[nH]c3cc2c1)NC12C[C@H]3C[C@@H](C1)C[C@@H](C2)C3 | 5260 |  | 960 | 
CN(C(=O)CCCOc1ccc2nc3[nH]c(=O)[nH]c3cc2c1)C1CCCCCC1 |  | 60 |  | 
O=c1[nH]c2cc3cc(OCCCO)ccc3nc2[nH]1 |  | 770 |  | 
CC(=O)CCCOc1ccc2nc3[nH]c(=O)[nH]c3cc2c1 |  | 1400 |  | 
CNC(=O)CCCOc1ccc2nc3[nH]c(=O)[nH]c3cc2c1 | 71600 | 1330 |  | 
Cn1c(=O)[nH]c2nc3ccc(OCCCC(=O)NC4CCCCC4)cc3cc21 | 7840 | 180 |  | 
CN(C(=O)CCCOc1ccc2nc3c(cc2c1)[nH]c(=O)n3C)C1CCCCC1 | 33000 |  | 520 | 
O=C(CCCOc1ccc2nc3[nH]c(=O)[nH]c3cc2c1)N1CCCCC1 |  |  |  | EC50 (P2Y purinoceptor 12): 130 nM
O=C(O)CCCOc1ccc2c(c1)CN1CC(=O)NC1=N2 | > 100000 |  | 6910 | 
O=C(CCCOc1ccc2nc3[nH]c(=O)[nH]c3cc2c1)NC1CCCCCC1 | 16 |  | 390 | 
CN(C(=O)CCCOc1ccc2nc3[nH]c(=O)n(C)c3cc2c1)C1CCCCCC1 | 1220 | 70 |  | 
CN(C(=O)CCCOc1ccc2nc3[nH]c(=O)n(C)c3cc2c1)C1CCCCC1 |  | 50 |  | 
O=c1[nH]c2cc3cc(OCCCCS(=O)(=O)c4ccccc4)ccc3nc2[nH]1 | 10 |  | 180 | 

SMILES | EC50 [2] [nM] | EC50 [3] [nM] | EC50 [5] [nM] | also measured
CN(C)C(=O)CCCOc1ccc2nc3[nH]c(=O)[nH]c3cc2c1 | 190 |  |  | 
CN(C(=O)CCCCOc1ccc2nc3[nH]c(=O)[nH]c3cc2c1)C1CCCCCC1 | 1 |  | 5 | 
COC(=O)CCCOc1ccc2nc3c(cc2c1)[nH]c(=O)n3C | 29800 | 360 |  | 
CN(C(=O)CCCOc1ccc2nc3c(cc2c1)n(C)c(=O)n3C)C1CCCCC1 |  | 26700 |  | 
NC(=O)CCCOc1ccc2nc3[nH]c(=O)[nH]c3cc2c1 | 3020 | 6040 |  | 
O=C(CCCOc1ccc2nc3[nH]c(=O)[nH]c3cc2c1)NC1CCCCC1 |  | 40 |  | 
COC(=O)CCCCc1ccc2nc3[nH]c(=O)[nH]c3cc2c1 | 3000 |  | 430 | 
O=C(O)CCCCc1ccc2nc3[nH]c(=O)[nH]c3cc2c1 | > 112000 |  | 63100 | 
COC(=O)CCCOc1ccc2nc3c(cc2c1)n(C)c(=O)n3C |  | > 87500 |  | 
CCOCCOc1ccc2nc3[nH]c(=O)[nH]c3cc2c1 |  | 4840 |  | 
O=C(O)CN(C(=O)CCCOc1ccc2nc3[nH]c(=O)[nH]c3cc2c1)C1CCCCC1 | 9600 |  | 910 | 
CN(C(=O)CCCCOc1ccc2nc3[nH]c(=O)n(C)c3cc2c1)C1CCCCC1 |  | 150 |  | 
Cn1c(=O)[nH]c2cc3cc(OCCCC(=O)O)ccc3nc21 | > 26500 |  | 1660 | 
Cn1c(=O)[nH]c2nc3ccc(OCCCC(=O)O)cc3cc21 |  | > 106000 |  | 
CN(C(=O)CCCOc1ccc2nc3[nH]c(=O)[nH]c3cc2c1)C1CCCCC1 | 7 |  |  | 
O=C(CCCOc1ccc2nc3[nH]c(=O)[nH]c3cc2c1)NC12C[C@H]3C[C@@H](C1)C[C@@H](C2)C3 | 20 |  | 120 | 
CCOC(=O)CCc1ccc2nc3[nH]c(=O)[nH]c3cc2c1 |  | 440 |  | 
CCOC(=O)COc1ccc2nc3[nH]c(=O)[nH]c3cc2c1 |  | 24300 |  | 
O=C(O)C1CCN(C(=O)CCCOc2ccc3nc4[nH]c(=O)[nH]c4cc3c2)CC1 | 45300 |  | 380 | 
